Data from patent US20250186379A1, “METHODS AND AGENTS FOR DECREASING INSULIN RESISTANCE” (Whitehead Institute for Biomedical Research, priority 2021, published 2025).
“Also recorded” adds a separate entry of the source.

System: insulin receptor (IR)
Experiment: Immunoblot for IR levels in HepG2 cells
Assay type: cell-based, human
Conditions: insulin resistant HepG2 cells treated with (RM) or without (R) metformin
Experimental: Cells were washed with ice-cold PBS and lysed in Cell Lytic M (Sigma-Aldrich C2978) supplemented with protease and phosphatase inhibitors (Sigma Aldrich, 11873580001 and 4906837001) directly on the wells. Lysates were placed into a 1.5 ml tube and mixed at 4° C. for 20 min and then centrifuged at 13,000 rpm for 15 min. Protein concentration was determined using a BCA Protein Assay Kit (Life Technologies, 23250) according to the manufacturer's instructions. Equal amounts of protein (5-50 μg per sample) were separated on 10% or 12% Bis-Tris gels in 5% XT MOPS running buffer (Bio-Rad Laboratories, 1610788) at 100V until dye front reached the end of the gel. Protein was then transferred to a 0.45 μM PVDF membrane (Millipore, IPVH00010) in ice cold transfer buffer (25 mM Tris, 192 mM glycine, 20% methanol) at 300 mA for 1 hour or 250 mA for 2 hours at 4° C. […] Immunoblot quantification was performed using the “analyze gel” tool on Fiji/ImageJ v2.1.0/153c. […]
Cells were washed with ice-cold PBS (Life Technologies, AM9625) and lysed in Cell Lytic M (Sigma Aldrich C2978) supplemented with protease and phosphatase inhibitors (Sigma Aldrich, 11873580001 and 4906837001) directly on the wells. […] Super natant was collected and protein concentration was determined using a BCA Protein Assay Kit (Life Technologies, 23250) according to the manufacturer's instructions. […]

CN(C)C(=N)N=C(N)N [metformin, reference compound]
IR levels (immunoblot for IRb): not due to changes in IR levels; also recorded: does not alter IR protein level in insulin resistant cells
